From US20240199605A1, “SMALL MOLECULAR INHIBITORS OF NF-kB INDUCING KINASE” (Janssen Pharmaceutica NV, priority 2019, published 2024)

What was measured:
[1] = molecular target: recombinant human NF-kappaB-inducing kinase (NIK/MAP3K14) (Homo sapiens (Human), UniProt Q99558); assay: Inhibition of auto-phosphorylation of recombinant human NIK/MAP3K14 (AlphaScreen); format: biochemical; conditions: NIK auto-phosphorylation, 5 μM ATP, 1 nM NIK, 2 h at 25° C.; average of values
Summary of the method: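 GST-tagged NIK (1 nM) auto-phosphorylated with 5 μM ATP for 2 h at 25° C. in 50 mM Tris pH 7.5, 5 mM MgCl2, 1 mM EGTA, 1 mM DTT, 0.1 mM Na3VO4, 0.01% Tween 20 (0.7% DMSO). Detected by AlphaScreen via anti-phospho-IKK Ser176/180 antibody; IC50 from sigmoidal fit of % inhibition versus log concentration.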

[2] = test system: p-IKKα levels in L363 (NIK translocated multiple myeloma) cells; assay: Effect of compounds on p-IKKα levels in L363 cells (AlphaLISA SureFire Ultra); format: cell-based, human; conditions: Homo sapiens, L-363, 6 h, BAFF stimulated, MG132, 6 h, average of values, read-out: Assay 2 IC50
Summary of the method: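 Inhibition of p-IKKα (Ser176/180) read by AlphaLISA after 6 h, 37 °C compound exposure (11-point 1:3 series, 0.3% DMSO) of L363 cells pre-incubated overnight ± 250 ng/ml BAFF and plated ± BAFF ± 10 μM MG132. Normalised to BAFF/MG132/DMSO and unstimulated controls; IC50 by sigmoidal fitting, duplicates.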

recombinant human NF-kappaB-inducing kinase (NIK/MAP3K14), sequence (Q99558 whole entry): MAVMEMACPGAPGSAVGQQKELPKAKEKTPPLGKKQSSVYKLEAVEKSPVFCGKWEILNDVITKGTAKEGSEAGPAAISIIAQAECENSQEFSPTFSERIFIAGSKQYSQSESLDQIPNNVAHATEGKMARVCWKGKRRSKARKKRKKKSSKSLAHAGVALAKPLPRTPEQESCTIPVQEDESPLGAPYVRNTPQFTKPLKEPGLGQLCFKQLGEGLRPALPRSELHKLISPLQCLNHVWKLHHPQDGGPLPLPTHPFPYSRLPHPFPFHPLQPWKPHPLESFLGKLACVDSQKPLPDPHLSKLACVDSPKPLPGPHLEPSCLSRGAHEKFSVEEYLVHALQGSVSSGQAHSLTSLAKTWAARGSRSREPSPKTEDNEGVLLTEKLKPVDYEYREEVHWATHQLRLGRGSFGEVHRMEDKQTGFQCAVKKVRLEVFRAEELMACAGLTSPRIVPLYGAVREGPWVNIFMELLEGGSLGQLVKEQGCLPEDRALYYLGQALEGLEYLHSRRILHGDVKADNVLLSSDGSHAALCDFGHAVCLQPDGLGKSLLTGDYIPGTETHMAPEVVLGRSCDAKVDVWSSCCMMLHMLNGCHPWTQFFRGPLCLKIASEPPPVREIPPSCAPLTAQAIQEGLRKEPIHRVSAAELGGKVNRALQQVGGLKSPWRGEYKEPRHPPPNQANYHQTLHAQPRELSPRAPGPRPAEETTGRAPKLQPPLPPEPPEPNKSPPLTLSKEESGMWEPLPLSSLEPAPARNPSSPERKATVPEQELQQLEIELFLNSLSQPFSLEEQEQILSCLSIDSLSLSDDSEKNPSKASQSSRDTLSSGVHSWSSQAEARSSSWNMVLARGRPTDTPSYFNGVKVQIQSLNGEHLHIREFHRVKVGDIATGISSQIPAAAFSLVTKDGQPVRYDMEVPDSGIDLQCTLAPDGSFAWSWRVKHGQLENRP

Row | IC50 [1] [nM] | IC50 [2] [nM] | SMILES
1 | ≤ 0.5 | 4 | CN1CC[C@@](O)(C#Cc2cccc(-c3ncc4c(-c5cnn(CC(C)(C)O)c5)cnc(N)c4n3)c2)C1=O [Example 123, (R)-3-[2-[3-[8-Amino-5-[1-(2-hydroxy-2-methyl-propyl)pyrazol-4-yl]pyrido[3,4-d]pyrimidin-2-yl]phenyl]ethynyl]-3-hydroxy-1-methyl-pyrrolidin-2-one]
2 | ≤ 0.5 | 9.6 | Cc1cnc(N)c2nc(-c3cccc(C#C[C@]4(O)CCN(C)C4=O)c3)nc(C)c12 [Example 138, (R)-3-((3-(8-Amino-4,5-dimethylpyrido[3,4-d]pyrimidin-2-yl)phenyl)ethynyl)-3-hydroxy-1-methylpyrrolidin-2-one]
3 | ≤ 0.5 | 6.5 | C[C@@](O)(C#Cc1cccc(-c2ccc3ncnc(N)c3n2)c1)c1nccs1 [Example 93, (R)-4-(3-(4-Aminopyrido[3,2-d]pyrimidin-6-yl)phenyl)-2-(thiazol-2-yl)but-3-yn-2-ol]
4 | 0.7 | 59 | Cc1nc(N)c2nc(-c3cccc(C#C[C@@](C)(O)c4cscn4)c3)ccc2n1 [Example 212, (R)-4-[3-(4-Amino-2-methyl-pyrido[3,2-d]pyrimidin-6-yl)phenyl]-2-thiazol-4-yl-but-3-yn-2-ol]
5 | 0.6 | 35 | Cc1nc(-c2cccc(C#C[C@]3(O)CCN(C)C3=O)c2)nc2c(N)nccc12 [Example 37, (R)-3-((3-(8-Amino-4-methylpyrido[3,4-d]pyrimidin-2-yl)phenyl)ethynyl)-3-hydroxy-1-methylpyrrolidin-2-one]
6 | 4.5 | 48 | Cc1ccc(C#C[C@]2(O)CCN(C)C2=O)cc1-c1nc(C)c2ncnc(N)c2n1 [Example 301, (R)-3-[2-[3-(8-Amino-4-methyl-pyrimido[5,4-d]pyrimidin-2-yl)-4-methyl-phenyl]ethynyl]-3-hydroxy-1-methyl-pyrrolidin-2-one]
7 | 0.8 | 28 | Cc1cc([C@](C)(O)C#Cc2cccc(-c3ccc4ncnc(N)c4n3)c2)no1 [Example 95, (R)-4-(3-(4-Aminopyrido[3,2-d]pyrimidin-6-yl)phenyl)-2-(5-methylisoxazol-3-yl)but-3-yn-2-ol]
8 | ≤ 0.5 | 5.5 | Cc1nc(-c2cccc(C#C[C@]3(O)CCn4ccnc43)c2)nc2c(N)nccc12 [Example 84, (R)-7-((3-(8-Amino-4-methylpyrido[3,4-d]pyrimidin-2-yl)phenyl)ethynyl)-6,7-dihydro-5H-pyrrolo[1,2-a]imidazol-7-ol]
9 | 15 | 700 | CC(C)(O)C#Cc1cccc(-c2ncc3ccnc(N)c3n2)c1 [Example 35, 4-[3-(8-Aminopyrido[3,4-d]pyrimidin-2-yl)phenyl]-2-methyl-but-3-yn-2-ol]
10 | 0.8 | 45 | CCc1nc(N)c2nc(-c3cccc(C#C[C@]4(O)CCN(C)C4=O)c3)ccc2n1 [Example 210, (R)-3-((3-(4-Amino-2-ethylpyrido[3,2-d]pyrimidin-6-yl)phenyl)ethynyl)-3-hydroxy-1-methylpyrrolidin-2-one]
11 | 2.1 | 180 | CN1CC[C@@](O)(C#Cc2cccc(-c3ccc4ncnc(N(C)C)c4n3)c2)C1=O [Example 25, (R)-3-((3-(4-(Dimethylamino)pyrido[3,2-d]pyrimidin-6-yl)phenyl)ethynyl)-3-hydroxy-1-methylpyrrolidin-2-one]

More lines, now with the values behind:

Row | SMILES | IC50 [1] [nM] | IC50 [2] [nM]
12 | Cc1nc(-c2cccc(C#C[C@]3(O)CCN(C)C3=O)c2)cc2c(N)ncnc12 [Example 136, (R)-3-[2-[3-(4-Amino-8-methyl-pyrido[3,4-d]pyrimidin-6-yl)phenyl]ethynyl]-3-hydroxy-1-methyl-pyrrolidin-2-one] | 0.7 | 60
13 | CN1CC[C@@](O)(C#Cc2cccc(-c3cc(N4CCC4)c4ncnc(N)c4n3)c2)C1=O [Example 316, (R)-3-[2-[3-[4-Amino-8-(azetidin-1-yl)pyrido[3,2-d]pyrimidin-6-yl]phenyl]ethynyl]-3-hydroxy-1-methyl-pyrrolidin-2-one] | 0.9 | 9.5
14 | [2H]C([2H])([2H])N1CC[C@@](O)(C#Cc2ccc(C)c(-c3nc4c(N)ncnc4s3)c2)C1=O [Example 216, (R)-3-[2-[3-(7-Aminothiazolo[5,4-d]pyrimidin-2-yl)-4-methyl-phenyl]ethynyl]-3-hydroxy-1-(trideuteriomethyl)pyrrolidin-2-one] | ≤ 0.5 | 8.5
15 | CN1CC[C@@](O)(C#Cc2cccc(-c3nc4c(N)ncnc4n3C)c2)C1=O [Example 143, (R)-3-((3-(6-Amino-9-methyl-9H-purin-8-yl)phenyl)ethynyl)-3-hydroxy-1-methylpyrrolidin-2-one] | 420 | > 5000
16 | CN1CC[C@@](O)(C#Cc2cccc(-c3ncc4c(CN5CCCCC5)cnc(N)c4n3)c2)C1=O [Example 145, (R)-3-[2-[3-[8-Amino-5-(1-piperidylmethyl)pyrido[3,4-d]pyrimidin-2-yl]phenyl]ethynyl]-3-hydroxy-1-methyl-pyrrolidin-2-one] | 3.6 | 280
17 | CN1CC[C@@](O)(C#Cc2cccc(-c3ncc4cc[nH]c(=O)c4n3)c2)C1=O [Example 30, (R)-2-[3-[2-(3-Hydroxy-1-methyl-2-oxo-pyrrolidin-3-yl)ethynyl]phenyl]-7H-pyrido[3,4-d]pyrimidin-8-one] | 60 | 1190
18 | [2H]c1nc(N)c2nc(-c3cccc(C#C[C@]4(O)CCN(C)C4=O)c3)cc(CC)c2n1 [Example 308, (R)-3-((3-(4-Amino-8-ethylpyrido[3,2-d]pyrimidin-6-yl-2-d)phenyl)ethynyl)-3-hydroxy-1-methylpyrrolidin-2-one] | 6.8 | 190
19 | Cc1cnc(N)c2nc(-c3cccc(C#C[C@]4(O)CCN(C)C4=O)c3)ncc12 [Example 39, (R)-3-((3-(8-Amino-5-methylpyrido[3,4-d]pyrimidin-2-yl)phenyl)ethynyl)-3-hydroxy-1-methylpyrrolidin-2-one] | ≤ 0.5 | 9
20 | CN1CC[C@@](O)(C#Cc2cccc(-c3ncc4c(C(=O)Oc5ccccc5)cnc(N)c4n3)c2)C1=O [Example 128, (R)-Phenyl 8-amino-2-[3-[2-(3-hydroxy-1-methyl-2-oxo-pyrrolidin-3-yl)ethynyl]phenyl]pyrido[3,4-d]pyrimidine-5-carboxylate] | 0.6 | 28
21 | CCOc1ncnc2ccc(-c3cccc(C#C[C@]4(O)CCN(C)C4=O)c3)nc12 [Example 24, (R)-3-((3-(4-Ethoxypyrido[3,2-d]pyrimidin-6-yl)phenyl)ethynyl)-3-hydroxy-1-methylpyrrolidin-2-one] | 260 | 4030
22 | CN1CC[C@@](O)(C#Cc2cccc(-c3ccc4ccnc(N)c4c3)c2)C1=O [Example 36, (R)-3-[2-[3-(1-Amino-7-isoquinolyl)phenyl]ethynyl]-3-hydroxy-1-methyl-pyrrolidin-2-one] | 1.9 | 200
23 | CN1CC[C@@](O)(C#Cc2cccc(-c3cc(N4CC(F)(F)C4)c4ncnc(N)c4n3)c2)C1=O [Example 300, (R)-3-[2-[3-[4-Amino-8-(3,3-difluoroazetidin-1-yl)pyrido[3,2-d]pyrimidin-6-yl]phenyl]ethynyl]-3-hydroxy-1-methyl-pyrrolidin-2-one] | 1.2 | 39
24 | CN1CC[C@@](O)(C#Cc2cccc(-c3ccc4ncnc(C5CC5)c4n3)c2)C1=O [Example 270, (R)-3-((3-(4-Cyclopropylpyrido[3,2-d]pyrimidin-6-yl)phenyl)ethynyl)-3-hydroxy-1-methylpyrrolidin-2-one] | 26 | 1000
25 | CC1(C)CC[C@@](O)(C#Cc2cccc(-c3ccc4ncnc(N)c4n3)c2)C1=O [Example 131, (R)-2-[2-[3-(4-Aminopyrido[3,2-d]pyrimidin-6-yl)phenyl]ethynyl]-2-hydroxy-5,5-dimethyl-cyclopentanone] | ≤ 0.5 | 47
26 | Cc1ccc(C#C[C@@](C)(O)c2nccs2)cc1-c1ncc2ccnc(N)c2n1 [Example 69, (R)-4-(3-(8-Aminopyrido[3,4-d]pyrimidin-2-yl)-4-methylphenyl)-2-(thiazol-2-yl)but-3-yn-2-ol] | 1 | 150
27 | CN1CC[C@@](O)(C#Cc2cccc(-c3cc(C4CCC4)c4ncnc(N)c4n3)c2)C1=O [Example 309, (R)-3-((3-(4-Amino-8-cyclobutylpyrido[3,2-d]pyrimidin-6-yl)phenyl)ethynyl)-3-hydroxy-1-methylpyrrolidin-2-one] | ≤ 0.5 | 9.7
28 | Cc1ncc(C#N)c2ccc(-c3cccc(C#C[C@]4(O)CCN(C)C4=O)c3)nc12 [Example 251, (R)-2-(3-((3-Hydroxy-1-methyl-2-oxopyrrolidin-3-yl)ethynyl)phenyl)-8-methyl-1,7-naphthyridine-5-carbonitrile] | 86 | 560
29 | [2H]C([2H])([2H])N1CCC(O)(C#Cc2cccc(-c3ncc4ccnc(N)c4n3)c2)C1=O (stereo in doubt) [Example 66, (R)-3-[2-[3-(8-Aminopyrido[3,4-d]pyrimidin-2-yl)phenyl]ethynyl]-3-hydroxy-1-(trideuteriomethyl)pyrrolidin-2-one] | ≤ 0.5 | 4.5
